# Measurements reported in US20210183467A1, “SYSTEM AND METHOD FOR USING MICROBIOME TO DE-RISK DRUG DEVELOPMENT” (YALE UNIVERSITY, priority 2018, published 2021).
# Experiment: Oral BRV in conventional (CV) and germfree (GF) mice, drug and metabolite levels
# Format: in vivo, C57BL/6 mice
# Procedure: Oral BRV was administered to conventional (CV) and germfree (GF) C57BL/6 mice, and BRV and BVU concentrations were measured over time along the length of the gastrointestinal tract as shown in FIG. 4C. Serum kinetics of BRV and BVU in conventional (CV) and germ-free (GF) mice were compared following oral BRV administration.
# All experiments using mice are performed using protocols approved by the Yale University Institutional Animal Care and Use Committee. Germfree (GF) 8 to 12 week old C57BL/6J mice are maintained in flexible plastic gnotobiotic isolators with a 12-hour light/dark cycle and GF status monitored by PCR and culture-based methods. Conventional C57BL/6J mice (Jackson Laboratories) are purchased at the age of 6-7 weeks and kept in the lab for 2-3 weeks before experiments. All mice are provided a standard, autoclaved mouse chow (5013 LabDiet, Purina) ad libitum.
# Each drug treatment is performed using 20 treated and 5 to 6 untreated animals. Both genders are equally represented in each group and evenly distributed across the different time points for sample collection. Animals (n=5 per time point and group) are given 100 mg/kg body weight of BRV or SRV as suspensions in PBS (200 μL PBS for controls) by oral gavage. One blood sample is collected from each animal at an early time point (0.5, 1, 1.5, or 2 hours after drug administration) by submandibular bleeding. At 3, 5, 7, and 9 h, mice are sacrificed and tissue samples are collected into sample tubes and snap-frozen. Fecal samples are collected before euthanization and re-suspended in PBS (1 mL) through vigorous shaking. 20 μL are then plated on BHI blood plates and incubated aerobically and anaerobically at 37° C. to check GF, GN^WT, and GN^MUT animals for contamination. Monocolonized mice are also checked for contamination by PCR using primers 7 and 8.
# 200 μL of 0.1 mm zirconia/silica beads (BioSpec Products) and 500 μL of organic solvent (acetonitrile:methanol, 1:1) supplemented with internal standard are added to 50-350 mg of pre-weighed solid material. Material is homogenized by mechanical disruption with a bead beater (BioSpec Products) set for 2 minutes on high setting at room temperature. After incubation for at least 1 h at −20° C., samples are centrifuged (3220 rcf, −9° C.) for 15 min. 10 μL of supernatant are diluted with 10 μL H2O for analysis by LC-MS.
# Samples for LS-MS analysis are prepared as described above. Chromatographic separation is performed on a C18 Kinetex Evo column (Phenomenex, 100 mm×2.1 mm, […]) using mobile phase A: H2O, 0.1% formic acid and B: methanol, 0.1% formic acid at 45° C. 5 μL of sample are injected at 100% A and 0.4 mL/min flow followed by a linear gradient to 95% B over 5.5 min and 0.4 mL/min flow leading to thymine, BVU, SRV, and BRV elution at 0.95, 2.0, 2.15, and 2.4 min, respectively. The internal standards caffeine and sulfamethoxazole elute at 1.9 and 2.1 min, respectively. The qTOF is operated in positive scanning mode (50-1000 m/z) and the following source parameters: VCap is 3500 V; nozzle voltage is 2000 V; gas temp is 225 C; drying gas 13 L/min; nebulizer is 20 psig; sheath gas temp is 225 C; and sheath gas flow is 12 L/min. Online mass calibration is performed using a second ionization source and a constant flow (5 μL/min) of reference solution (121.0509 and 922.0098 m/z). Compounds are identified based on the retention time of chemical standards and their accurate mass (tolerance 20 ppm).
compound,measurement,setting,value
"O=c1[nH]c(=O)n([C@H]2C[C@H](O)[C@@H](CO)O2)cc1/C=C/Br [BRV, Brivudine]",endogenous DPD substrates (thymine) in the liver,BRV-treated CV mice,accumulate endogenous DPD substrates
same,drug concentrations along the length of the gastrointestinal tract,"CV mice, oral BRV",progressively reduced
same,BRV levels over time in the duodenum,"CV versus GF mice, oral BRV",similar
same,serum BRV,"CV versus GF mice, oral BRV",without a corresponding decrease
same,BRV levels further along the gastrointestinal tract and in feces,"GF mice versus CV, oral BRV",significantly higher
